One data set has as its system Escherichia coli. Nature of the data set: Antimicrobial screening, agar dilution method. The class given is cell-based. As to conditions: after 10, 20, 40 and 60 minutes at all dilutions 1:100, 1:200, 1:400, 1:800. The procedure:
(§1) The antibacterial properties of the synthesized compound 2-benzo-[3,4-b]pyridine-[b,g]indeno[1′,2′:3,4]fluoreno-[1,2-d]oxonine-5,11,16,21-tetraone were studied by the method of agar dilution. Test solutions of each compound was prepared in concentration of 1% using dimethylformamide as a solvent then they are diluted in physiological solution to obtain the final experimental dilutions 1:100, 1:200, 1:400, 1:800. The effect of these substances are compared with furacillin in a controllable study. The testing microbes used were gram positive bacteria Staphylococcus aureus, gram negative bacteria Pseudomonas aeruginosa and Escherichia coli and Candida albicans fungus. The experiments used for this survey were meat-pentonlu agar (EPA) for cultivation of bacteria and Saburo environment for the fungus. Each experiment used 1 mL of test solution on each plate […]. Two drops of emulsified with microbes feel were added. All experimental samples were taken from the agar after 10, 20, 40, 60 minutes in the environment on the basis of Patrk planted. The bacteria were cultivated at a temperature of 37° C. for 1 day and the mushroom was kept in a thermostat for 2 hours at a temperature of 28° C. Then results were checked.
For orientation: In agar dilution the substance is mixed into plates at graded concentrations.

Another data set relates to Candida albicans. The data set can be described thus: Antimicrobial screening, agar dilution method. The class given is cell-based. As to conditions: after 10, 20, 40 and 60 minutes at all dilutions 1:100, 1:200, 1:400, 1:800. The procedure: as §1
The next data set concerns Pseudomonas aeruginosa. Nature of the data set: Antimicrobial screening, agar dilution method. The class given is cell-based. As to conditions: after 10, 20, 40 and 60 minutes at all dilutions 1:100, 1:200, 1:400, 1:800. The protocol:
as §1

Another data set has as its system Staphylococcus aureus. Nature of the data set: Antimicrobial screening, agar dilution method. The class given is cell-based. As to conditions: after 10, 20, 40 and 60 minutes at all dilutions 1:100, 1:200, 1:400, 1:800. The protocol:
as §1

From patent publication US12134622B1, “2-benzo-[3,4-b]pyridine-[b,g]indeno[1,2;3,4]fluoreno-[1,2-d]oxonine-5,11,16,21-tetraone as an antimicrobial compound” (KING FAISAL UNIVERSITY, priority 2023, dated 2024) come the findings set out here.

Usually melting point stands for the temperature, or range, at which the solid turns liquid.

`O=C1Oc2ncccc2-c2c(c3c4ccccc4c(=O)c3c3c2c(=O)c2ccccc23)C(=O)c2ccccc21` [2-benzo-[3,4-b]pyridine-[b,g]indeno[1′,2′:3,4]fluoreno-[1,2-d]oxonine-5,11,16,21-tetraone] showed a melting point of 270 to 271 °C. Further, the inhibition activity entry in the data set on Escherichia coli was “highest inhibition activity”. The inhibition activity result in the data set with Candida albicans was “highest inhibition activity”. Besides, in the data set with Pseudomonas aeruginosa, the inhibition activity result is listed as “highest inhibition activity”. Besides, the inhibition activity result in the data set on Staphylococcus aureus is “highest inhibition activity”.
